In one data set the test system is lady's-thumb. Briefly: greenhouse post-emergence herbicidal test. As to conditions: application rates of 0.25 or 0.125 kg/ha. The class given is in vivo, Polygonum persicaria. The text has this:
(§1) The seeds of the test plants were sown separately for each species. For the post-emergence treatment, the test plants were first grown to a height of 3 to 15 cm, depending on the plant habit, and only then treated with the active compounds which had been suspended or emulsified in water. The test plants were for this purpose either sown directly and grown in the same containers, or they were first grown separately as seedlings and transplanted into the test containers a few days prior to treatment. The application rate for the post-emergence treatment was 0.25, 0.125 or 0.0625 kg of a.s. (active substance)/ha. Depending on the species, the plants were kept at 10-25° C. or […] The test period extended over 2 to 4 weeks. During this time, the plants were tended, and their response to the individual treatments was evaluated. The evaluation was carried out using a scale from 0 to 100. 100 means no emergence of the plants, or complete destruction of at least the aerial parts and 0 means no damage, or normal course of growth. The plants used in the greenhouse experiments were of the following species: [table]

The subject of another data set is lamb's-quarters. Put plainly: greenhouse post-emergence herbicidal test. The class given is in vivo, Chenopodium album. As to conditions: application rates of 0.25 or 0.125 kg/ha.
Text: as §1

Another data set relates to barnyard grass. Briefly: greenhouse post-emergence herbicidal test. The class given is in vivo, Echinochloa crus-galli. As to conditions: application rates of 0.25 or 0.125 kg/ha.
Text: as §1

The test system of the next data set is black nightshade. Briefly: greenhouse post-emergence herbicidal test. As to conditions: application rates of 0.25 or 0.125 kg/ha. The class given is in vivo, Solanum nigrum.
Text: as §1

The subject of another data set is green foxtail. Put plainly: greenhouse post-emergence herbicidal test. The class given is in vivo, Setaria eiridis. As to conditions: application rates of 0.25 or 0.125 kg/ha.
Text: as §1

As for `COc1c(C(=O)c2ccc(S(C)(=O)=O)c(C3=NOCC3)c2Cl)cnn1C(C(C)C)C(C)C` [Compound 2.16], the melting point was 65 to 70 °C.
In turn, `CC(C)Oc1c(C(=O)c2ccc(S(C)(=O)=O)c(C3=NOCC3)c2Cl)cnn1C(C)C(C)C` (stereo not drawn) [Compound 2.10] showed a melting point of 125 to 130 °C.
In the case of `COc1c(C(=O)c2ccc(S(C)(=O)=O)c(C3=NOCC3)c2Cl)cnn1C(C)C` [Compound 2.5], the melting point lay within 185 to 190 °C.
On the same count and under the same terms, the result for `CC(C)C(C(C)C)n1ncc(C(=O)c2ccc(S(C)(=O)=O)c(C3=NOCC3)c2Cl)c1O` [Compound 2.15] reads 200 to 205 °C.
Consider `COc1c(C(=O)c2cnn(C(C)C)c2O)ccc(S(C)(=O)=O)c1C1=NOCC1` [Compound 2.13], for which the melting point lay within 154 to 156 °C.
`CCOc1c(C(=O)c2ccc(S(C)(=O)=O)c(C3=NOCC3)c2Cl)cnn1C(C)C` [Compound 2.4] returned a melting point of 150 to 155 °C.
Same read-out and setting: the result for `CC(C)Oc1c(C(=O)c2ccc(S(C)(=O)=O)c(C3=NOCC3)c2Cl)cnn1C(C)C` [Compound 2.3] reads 175 to 180 °C.
With `CC(C)n1ncc(C(=O)c2ccc(S(C)(=O)=O)c(C3=NOCC3)c2Cl)c1O` [Compound 2.2], the melting point was 210 to 215 °C. Further, the “post-emergence herbicidal action against lady's-thumb” value with lady's-thumb is recorded as “very good post-emergence action”. For the same compound, the “post-emergence herbicidal action against lamb's-quarters” value in the data set with lamb's-quarters is “very good post-emergence action”. The “post-emergence herbicidal action against barnyard grass” value in the data set on barnyard grass is “very good post-emergence action”. The “post-emergence herbicidal action against black nightshade” value in the data set on black nightshade was “very good post-emergence action”. The “post-emergence herbicidal action against green foxtail” value with green foxtail is on record as “very good post-emergence action”.
`CC(C)(C)n1ncc(C(=O)c2ccc(S(C)(=O)=O)c(C3=NOCC3)c2Cl)c1O` [Compound 2.1, 4-[2-Chloro-3-(4,5-dihydroisoxazol-3-yl)-4-methylsulfonylbenzoyl]-5-hydroxy-1-(1,1-dimethyl-1-ethyl)-1H-pyrazole] gave a melting point of 198 to 200 °C.
The compound `CC(C)C(C)n1ncc(C(=O)c2ccc(S(C)(=O)=O)c(C3=NOCC3)c2Cl)c1O` (stereo not drawn) [Compound 2.9] returned a melting point of 150 to 155 °C.

What is called melting point is the temperature, or range, at which the solid turns liquid.
